Source: patent US20230002352A1, “SULFONAMIDE DERIVATIVES AS CTPS1 INHIBITORS” (Step Pharma S.A.S., priority 2019, published 2023)
Read-outs that look alike come from different tables or passages of the source.

Tests used:
[1] = target: T1, human CTPS1 (Homo sapiens, UniProt P17812); assay: Human CTPS1 enzyme inhibition (ADP-Glo Max assay); assay type: biochemical; conditions: ADP-Glo Max assay, read-out: CTPS1 (Human CTPS1 Enzyme Inhibition data grouped by potency range, IC50)
T1 construct: purchased Proteros biostructures GmbH
T1 sequence (P17812 1-591): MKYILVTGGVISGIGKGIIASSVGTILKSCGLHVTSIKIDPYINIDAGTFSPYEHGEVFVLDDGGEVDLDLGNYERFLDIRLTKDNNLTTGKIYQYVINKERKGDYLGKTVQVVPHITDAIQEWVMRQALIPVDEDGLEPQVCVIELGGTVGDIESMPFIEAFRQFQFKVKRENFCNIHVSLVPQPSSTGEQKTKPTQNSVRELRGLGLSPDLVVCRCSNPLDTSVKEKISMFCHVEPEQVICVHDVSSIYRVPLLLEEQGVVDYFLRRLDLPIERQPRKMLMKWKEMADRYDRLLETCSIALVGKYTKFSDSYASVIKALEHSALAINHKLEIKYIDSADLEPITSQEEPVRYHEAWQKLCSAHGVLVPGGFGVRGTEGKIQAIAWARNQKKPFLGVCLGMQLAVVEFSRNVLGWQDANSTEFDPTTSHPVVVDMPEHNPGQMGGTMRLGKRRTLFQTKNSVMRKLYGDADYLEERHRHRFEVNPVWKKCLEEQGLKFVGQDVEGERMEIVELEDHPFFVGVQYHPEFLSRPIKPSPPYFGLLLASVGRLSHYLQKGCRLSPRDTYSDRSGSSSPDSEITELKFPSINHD
Method in brief: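 Full-length FLAG-His-tagged human CTPS1 and compound were preincubated 10 min at 25 °C in 50 mM Tris pH 8.0, 10 mM MgCl2, 0.01% Tween-20, 2 mM L-cysteine. Substrate mix: ATP 0.31 mM, GTP 0.034 mM, UTP 0.48 mM, glutamine 0.186 mM; linear-phase reaction at 25 °C. ADP-Glo Max luminescence; IC50 from inhibition curve.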

[2] = tested on: human CTPS1 versus CTPS2; assay: Human CTPS1 versus CTPS2 selectivity assessment by RapidFire/MS analysis; assay type: biochemical
Protocol: Biological Example 2—RapidFire/MS-Based Enzyme Selectivity Assays.
Human CTPS1 Versus CTPS2 Selectivity Assessment by RapidFire/MS Analysis.
The enzyme inhibitory activities against each target isoform of interest may be determined for the compounds of the invention using an optimised RapidFire high-throughput mass spectrometry (RF/MS) assay format. RF/MS assays for both human CTPS1 and CTPS2 may be performed in assay buffer consisting of 50 mM HEPES (Merck), 20 mM MgCl2, 5 mM KCl, 1 mM DTT, 0.01% Tween-20, pH to 8.0 accordingly. Human full-length active C-terminal FLAG-His-tag CTPS1 (UniProtKB-P17812, CTPS[1-591]-[…]) may be obtained from Proteros biostructures GmbH. Human full length active C-terminal FLAG-His-Avi tagged CTPS2 (UniProtKB-Q9NRF8, CTPS2 [1-586]-[…]) may be obtained from Harker Bio.
Human CTPS (1 or 2) protein may be prepared in 1× assay buffer to the final working protein concentration required for the reaction. A 2 uL volume per well of 2×CTPS (1 or 2) protein may be mixed with 40 nL of compound using acoustic (ECHO) delivery and incubated for 10 minutes at 25° C. Each isoform enzymatic reaction may be subsequently initiated by addition of 2 uL per well of a 2× substrate mix in assay buffer. For hCTPS1: ATP (0.3 mM), UTP (0.2 mM), GTP (0.07 mM) and L-glutamine (0.1 mM). For hCTPS2: ATP (0.1 mM), UTP (0.04 mM), GTP (0.03 mM) and L-glutamine (0.1 mM). Each mixture may be incubated for an appropriate amount of time per isoform within the determined linear phase of the reaction at 25° C. A 60 uL volume of stop solution (1% formic acid with 0.5 uM ^13C9-^15N3-CTP in H2O) may be added and the plate immediately heat-sealed and centrifuged for 10 minutes at 4,000 rpm. Following centrifugation, plates may be loaded onto the Agilent RapidFire microfluidic solid phase extraction system coupled to an AP14000 triple quadrupole mass spectrometer (RF/MS) for analysis.
In all cases, the enzyme converts UTP to CTP. Highly specific and sensitive multiple reaction monitoring (MRM) MS methods may be optimised for the detection of the enzymatic reaction product, CTP, and the stable isotope labelled product standard ^13C9-^15N3-CTP. Readout for data analysis may be calculated as the ratio between the peak area of the product CTP and the internal standard ^13C9-^15N3-CTP. For data reporting, the following equation may be used: […]
For each screening plate, the means of the negative (DMSO) and positive control values were used for the calculation of the respective assay window (S/B) and Z′ values. The median of the respective control values was used for calculation of percent inhibition according to the following equation: […]
Percentage inhibition was then plotted against compound concentration, and the 50% inhibitory concentration (IC50) was determined from the resultant concentration-response curve.
Fold selectivity between CTPS1 and CTPS2 was subsequently calculated according to the following equation: […]

SMILES	IC50 ([1]; Table 23) [nM]	Selectivity (fold selectivity between CTPS1 and CTPS2) ([2]; Table 26)	IC50 ([1]; Table 24) [nM]	Selectivity (fold selectivity between CTPS1 and CTPS2) ([2]; Table 27)
CCOc1cncc(-c2ccc(NC(=O)C(CC)c3ccnc(NS(=O)(=O)C4CC4)n3)c(C)c2)n1 (stereo not shown) [Example P161]	≤ 100	+ (2-30 fold (+))	–	–
CCOc1cncc(-c2cnc(NC(=O)C(CC)c3ccnc(NS(=O)(=O)C4CC4)n3)c(F)c2)n1 (stereo not shown) [Example P162]	≤ 100	++ (>30-60 fold (++))	–	–
O=C(Cc1ccnc(NS(=O)(=O)C2CC2)n1)Nc1ccc(-c2cccnc2)cc1 [Example P16]	100 to 1000	++ (>30-60 fold (++))	–	–
CCOc1cncc(-c2ccc(NC(=O)C3(c4ccnc(NS(=O)(=O)C5CC5)n4)CCC(N(C)C)CC3)nc2)n1 (single isomer, unassigned) [Example P230, 1-(2-(cyclopropanesulfonamido)pyrimidin-4-yl)-4-(dimethylamino)-N-(5-(6-ethoxypyrazin-2-yl)pyridin-2-yl)cyclohexane-1-carboxamide]	–	–	≤ 100	+++ (>60 fold (+++))
CC(C)Oc1cncc(-c2ccc(NC(=O)C(C)(C)c3ccnc(NS(=O)(=O)C4CC4)n3)c(F)c2)n1 [Example P39]	≤ 100	+ (2-30 fold (+))	–	–
CCOc1cncc(-c2ccc(NC(=O)C3(c4ccnc(NS(=O)(=O)C5CC5)n4)CCOCC3)nc2)n1 [Example P115, 4-(2-(Cyclopropanesulfonamido)pyrimidin-4-yl)-N-(5-(6-ethoxypyrazin-2-yl)pyridin-2-yl)tetrahydro-2H-pyran-4-carboxamide]	≤ 100	+++ (>60 fold (+++))	–	–
CCOc1cncc(-c2ccc(NC(=O)C(CCOC)c3ccnc(NS(=O)(=O)C4CC4)n3)nc2)n1 (stereo not shown) [Example P145]	≤ 100	+++ (>60 fold (+++))	–	–
CCOc1cncc(-c2ccc(NC(=O)C(OC)c3ccnc(NS(=O)(=O)C4CC4)n3)cc2)n1 (stereo not shown) [Example P164]	≤ 100	+ (2-30 fold (+))	–	–
CC(C)(C(=O)Nc1ccc(-c2cncc(C3CC3)n2)cn1)c1ccnc(NS(=O)(=O)C2CC2)n1 [Example P125]	100 to 1000	++ (>30-60 fold (++))	–	–
CCOc1cncc(-c2ccc(NC(=O)C(C)(C)c3cncc(NS(=O)(=O)C4CC4)n3)cc2)n1 [Example P196]	≤ 100	+++ (>60 fold (+++))	–	–
CCOc1cncc(-c2ccc(NC(=O)C(C)(C)c3cncc(NS(=O)(=O)C4CC4)n3)nc2)n1 [Example P195]	≤ 100	+++ (>60 fold (+++))	–	–
CC(C)(NC(=O)c1ccc(-c2cncc(C(F)(F)F)n2)cc1)c1cncc(NS(=O)(=O)C2CC2)n1 [Example P222]	100 to 1000	+ (2-30 fold (+))	–	–
CCOc1cncc(-c2ccc(NC(=O)C(C)(CC)c3ccnc(NS(=O)(=O)C4CC4)n3)nc2)n1 (stereo not shown) [Example P163]	≤ 100	+++ (>60 fold (+++))	–	–
CCOc1cncc(-c2ccc(NC(=O)C(C)(C)c3nc(NS(=O)(=O)C4CC4)ncc3F)cc2)n1 [Example P68]	100 to 1000	++ (>30-60 fold (++))	–	–
CCOc1cncc(-c2ccc(NC(=O)C(CCOC)c3ccnc(NS(=O)(=O)C4CC4)n3)c(F)c2)n1 (stereo not shown) [Example P146]	≤ 100	+++ (>60 fold (+++))	–	–
CCOc1cncc(-c2ccc(NC(=O)C3(c4ccnc(NS(=O)(=O)C5CC5)n4)CCC(F)(F)CC3)nc2)n1 [Example P242]	–	–	≤ 100	+++ (>60 fold (+++))
CCC(C(=O)Nc1ncc(-c2cncc(OC)n2)cc1F)c1ccnc(NS(=O)(=O)C2CC2)n1 (stereo not shown) [Example P158]	100 to 1000	+ (2-30 fold (+))	–	–
CCOc1cncc(-c2ccc(NC(=O)C(C)(C)c3nc(NS(=O)(=O)C4CC4)ncc3C)cc2)n1 [Example P70]	1000 to 10000	+ (2-30 fold (+))	–	–
CC(C)Oc1cncc(-c2ccc(NC(=O)Cc3ccnc(NS(=O)(=O)C4CC4)n3)c(F)c2)n1 [Example P12]	≤ 100	++ (>30-60 fold (++))	–	–
CCOc1cncc(-c2ccc(NC(=O)C(C)(C)c3ccnc(NS(=O)(=O)C4CC4)n3)c(F)c2)n1 [Example P38]	≤ 100	+ (2-30 fold (+))	–	–
CCOc1cncc(-c2ccc(NC(=O)C3(c4ccnc(NS(=O)(=O)C5CC5)n4)CCCC3)nc2)n1 [Example P136]	≤ 100	+++ (>60 fold (+++))	–	–
CCOc1cncc(-c2ccc(NC(=O)C(C)(C)c3ccnc(NS(=O)(=O)C4CC4)n3)c(C#N)c2)n1 [Example P34]	≤ 100	+ (2-30 fold (+))	–	–
CC(C)Oc1cncc(-c2ccc(C(=O)NC(C)(C)c3cncc(NS(=O)(=O)C4CC4)n3)c(F)c2)n1 [Example P221]	100 to 1000	+ (2-30 fold (+))	–	–
CCOc1cncc(-c2ccc(NC(=O)C(C)(C)c3ccnc(NS(=O)(=O)C4CC4)n3)nc2)n1 [Example P31]	≤ 100	+++ (>60 fold (+++))	–	–
CC(C)Oc1cncc(-c2ccc(NC(=O)Cc3ccnc(NS(=O)(=O)C4CC4)n3)cc2)n1 [Example P21]	≤ 100	++ (>30-60 fold (++))	–	–
CCOc1cncc(-c2ccc(NC(=O)C3(c4ccnc(NS(=O)(=O)C5CC5)n4)CCC(N(C)C)CC3)nc2)n1 (single isomer, unassigned) [Example P229, 1-(2-(cyclopropanesulfonamido)pyrimidin-4-yl)-4-(dimethylamino)-N-(5-(6-ethoxypyrazin-2-yl)pyridin-2-yl)cyclohexane-1-carboxamide]	–	–	≤ 100	+++ (>60 fold (+++))
CCC(C(=O)Nc1ccc(-c2cncc(OC)n2)cn1)c1ccnc(NS(=O)(=O)C2CC2)n1 (stereo not shown) [Example P159]	≤ 100	+++ (>60 fold (+++))	–	–
CCOc1cncc(-c2ccc(NC(=O)C(C)(C)c3ccnc(NS(C)(=O)=O)n3)nc2)n1 [Example P76]	100 to 1000	++ (>30-60 fold (++))	–	–
CC(C)(C(=O)Nc1ccc(-c2cccnc2)cc1)c1ccnc(NS(=O)(=O)C2CC2)n1 [Example P59]	1000 to 10000	+ (2-30 fold (+))	–	–
